“And” between values parts separate entries of the source, which are not always exact repeats. Equal values may be shown once.
Tests used:
[1] = Stability in hepatomicrosome with NADPH (LC-MS/MS); type: in vitro ADME, human; conditions: for % Remaining: human hepatomicrosome 0.5 mg/ml, NADPH 2 mM, 37° C., Sample 1, Sample 2
Procedure: The compounds, hepatomicrosome and reduced coenzyme NADPH were mixed together. Besides, a final concentration of the hepatomicrosome was 0.5 mg/ml, and human, male and mixed types of the hepatomicrosome were purchased. A final concentration of the NADPH was 2 mM. Next, the preceding mixtures were incubated in buffer (100 mM KH2PO4—K2HPO4) at 37° C. for 0, 5, 15, 30, 45, and 60 minutes, respectively. At the appointed incubation time, the reaction was terminated by the addition of an internal standard solution. Finally, the samples were centrifuged and the supernatant was taken for detection by LC-MS/MS.
Through mass spectrometry analysis, a concentration of the compounds in each sample was expressed by a peak-area ratio (a ratio of the peak-area of the compound to a peak-area of the internal standard). Then, each remaining percentage of the compounds (% Remaining) at each appointed incubation time was calculated with a reference that 0 minute at each concentration of the compounds. In logarithm of the remaining percentage was fitted linearly with the appointed incubation times, and a half-life and an intrinsic clearance were calculated according to the following formulas.
The remaining percentage (% Remaining)=(a peak area ratio at a certain appointed time (PARappointed time)/a peak area ratio at 0 minute (PAR0-mm)×100 (PAR: peak area ratio)
The elimination rate constant (k)=a negative of a slope (-gradient)
In vitro clearance (CLint, in vitro) (ml/min/mg)=k/c (c: a concentration of hepatomicrosome in the incubation system)

[2] = Pharmacokinetics after single intravenous drip infusion, plasma LC-MS/MS; type: in vivo, Philippine macaques; conditions: individual animals 101, 102, 103; for Plasma-drug concentration: AST-3424-D6 intravenous drip infusion 0.42 mg/kg
Procedure: AST-3424 and AST-3424-D6 (i.e. the compound of formula I) were administered to Philippine macaques by intravenous drip infusion, and blood samples were collected at different appointed times. LC-MS/MS was used to determine concentrations of the test substances in plasma of the Philippine macaques after administration, and relevant pharmacokinetic parameters were calculated.
Preparation method: 0.447 ml of AST-3424 (0.2 mg/ml) and 0.481 ml of AST-3424-D6 (0.2 mg/ml) were added into 104.272 ml of the dissolvent, respectively, and mixed for 5 minutes to obtain colorless and clarified solutions with pH 7.0.
The four male Philippine macaques were purchased from Guangxi Xiongsen Primate Development Experiment Co., Ltd. All Philippine macaques were healthy with qualified medical examination and no abnormality. Three of animals were used for the experiment, and one of them was used to prepare blank plasma.
About 0.8 ml of blood samples were collected through femoral vein and anticoagulated with heparin sodium. Appointed times of blood collection were before administration, 0.17, 0.25, 0.5, 0.75, 1, 2, and 4 hours after administration.
The blood samples were placed on ice after collection. Next, plasma samples were separated by centrifugation, and centrifugation conditions were 3500 rpm for 10 minutes at 4° C. Then, the collected plasma samples were stored at −80° C. until analysis. The plasma samples were analyzed by LC-MS/MS by an analysis department of an experimental institution. Besides, Lower limit of quantifications (LLOQ) of AST-3424 and AST-3424-D6 detection were 1 ng/ml. The accuracy of analysis results of an accompanying standard curve and a quality control samples all met the relevant requirements of biological analysis (the accuracy of the quality control samples exceeding 66.7% was between 85˜115%) in a process of the sample detection.
According to average blood concentration data of each group at each appointed time, the pharmacokinetic parameters of the compounds were respectively computed by a pharmacokinetic computing software, a non-compartmental model. In addition, the pharmacokinetic parameters were AUC0-t, AUC0-∞, MRT0-∞, Cmax, Tmax, t1/2, etc. In the case of the concentrations of the samples whose concentration being lower than a lower limit of quantification, the following schemes were used to compute the pharmacokinetic parameters. The samples sampled before reaching Cmax shall be computed as zero value, while the samples sampled after reaching Cmax shall be computed as non-quantifiable (marked as “BLQ”).
After a single intravenous infusion of the compounds AST-3424 and AST-3424-D6 was administered to the Philippine macaques, the whole blood samples of the corresponding animals were collected at the appointed times. Next, the whole blood samples were processed and biologically analyzed to obtain concentrations of the compounds in the plasma at the different appointed times. Results of the assay were listed in Table 14 below, and corresponding means of the plasma-drug concentration-time curves are shown in FIG. 3.
According to the plasma-drug concentration data of each drug group, the pharmacokinetic parameters of each compound group were computed using the non-compartmental model of the pharmacokinetic computing software. The pharmacokinetic

[3] = AST-3424-D6 single intravenous infusion, Table 15 heading 0.58 mg/kg (text: 0.42 mg/kg), plasma

[2H]C([2H])([2H])N(C(=O)c1cccc(Oc2cc([C@H](C)OP(=O)(N3CC3)N3CC3)ccc2[N+](=O)[O-])c1)C([2H])([2H])[2H] [AST-3424-D6]
Stability parameter k (elimination rate constant) ([1]; human hepatomicrosome): 0.0349 min⁻¹
% Remaining ([1]; 0 minutes): 101.60% and 98.40%
% Remaining ([1]; 5 minutes): 85.07% and 87.20%
% Remaining ([1]; 15 minutes): 62.93% and 60.00%
% Remaining ([1]; 30 minutes): 36.80% and 34.93%
% Remaining ([1]; 45 minutes): 21.17% and 21.07%
% Remaining ([1]; 60 minutes): 13.52% and 12.75%
% Remaining, Average ([1]; human hepatomicrosome, 0 minutes): 100.00%
% Remaining, Average ([1]; human hepatomicrosome, 5 minutes): 86.13%
% Remaining, Average ([1]; human hepatomicrosome, 15 minutes): 63.47%
% Remaining, Average ([1]; human hepatomicrosome, 30 minutes): 35.87%
% Remaining, Average ([1]; human hepatomicrosome, 45 minutes): 21.12%
% Remaining, Average ([1]; human hepatomicrosome, 60 minutes): 13.13%
Hepatomicrosome stability compared with AST-3424, in words ([1]; human hepatomicrosome, FIG. 2 and Table 13): more stable
Remaining percentage higher than that of AST-3424 ([1]; human hepatomicrosome, at the same time period): at least 10%
half-life ([1]; male, liver microsomes (hepatomicrosome), human hepatomicrosome, read-out: Stability parameter (t1/2)): 19.9 min
Plasma-drug concentration ([2]; 0.17 hr): 573.76 ng/mL and 478.95 ng/mL
Plasma-drug concentration ([2]; 0.25 hr): 528.54 ng/mL and 508.71 ng/mL
Plasma-drug concentration ([2]; 0.5 hr): 533.71 ng/mL and 487.88 ng/mL
Plasma-drug concentration ([2]; 0.75 hr): 122.04 ng/mL and 91.24 ng/mL
Plasma-drug concentration ([2]; 1 hr): 36.24 ng/mL and 24.30 ng/mL
Plasma-drug concentration ([2]; 2 hr, LLOQ 1 ng/ml): BLQ
Plasma-drug concentration ([2]; 4 hr, LLOQ 1 ng/ml): BLQ
AUC(0−t) [2, 3]: 327.39 ng·h/mL and 291.62 ng·h/mL
AUC(0−∞) [2, 3]: 295.67 ng·h/mL
Cl [2, 3]: 23.6747 mL/min/kg
Cmax [2, 3]: 573.76 ng/mL and 508.71 ng/mL
T1/2 [2, 3]: 7.2 min
Tmax [2, 3]: 30 min and 10.2 min and 15 min
Vss [2, 3]: 0.20706 L/kg

— patent US20220395464A1, “ORALLY ADMINISTERED SOLID DOSAGE FORM DRUG” (ASCENTAWITS PHARMACEUTICALS, LTD., priority 2019, published 2022)
